Laboratory results: US6645983B1, “Pharmaceutical compositions comprising 4-quinolones for treating cancers” (Laboratoire L. Lafon, priority 1999, dated 2003)

Legend:
A-427 = assay: MTT test, cytotoxic activity on non-clonogenic cell lines; assay type: cell-based; conditions: Homo sapiens, 10^−5 M, 72 hours of incubation, control condition = 100%, mean value, read-out: mean optical density as percentage of control, A-427
Procedure: (§1) The principle of the MTT test is based on the mitochondrial reduction, by the metabolically active live cells, of the yellow-colored product MTT (3-(4,5-dimethylthiazol-2-yl)-2,5-diphenyltetrazolium bromide) to a blue-colored product, formazan. The amount of formazan thus obtained is directly proportional to the amount of live cells present in the culture well(s). This amount of formazan is measured by spectrophotometry.
(§2) The cell lines are maintained as a monolayer culture at 37° C. in stoppered culture dishes containing MEM 25 MM HEPES (Minimum Essential Medium) base medium. This medium is suited to the growth of a range of various mammalian diploid or primary cells. This medium is then supplemented with:
(§3) The 12 human cancer cell lines which were used were obtained from the American Type Culture Collection (ATCC, Rockville, Md., USA). These 12 cell lines are:
(§4) Experimentally, 100 μl of a cell suspension containing 20 000 to 50 000 (depending on the cell type used) cells/ml of culture medium are inoculated -in 96-well flat-bottomed multi-well plates and are left to stand in an incubator at 37° C., 5% CO2 and 70% humidity. After an incubation time of 24 hours, the culture medium is replaced with 100 μl of fresh medium containing either the various test compounds—at concentrations varying from 10^−5 to 10^−10 M—or the solvent having served for dissolving the products to be tested (control condition). […] The microplates are thus incubated for 3 hours at 37° C., then centrifuged for 10 minutes at 400 g. The yellowish solution of MTT is removed and the blue formazan crystals formed in the cell region are dissolved in 100 μl or DMSO. The microplates are then shaken for 5 minutes. […] Software incorporated in the spectrophotometer calculates the average optical density values and the standard deviation (SD) and standard error of mean (SEM) values.

A549 = assay: as above; assay type: cell-based; conditions: Homo sapiens, 10^−5 M, 72 hours of incubation, control condition = 100%, mean value, read-out: mean optical density as percentage of control, A549
Procedure: as §1, §2, §3, §4

HCT-15 = assay: as above; assay type: cell-based; conditions: Homo sapiens, 10^−5 M, 72 hours of incubation, control condition = 100%, mean value, read-out: mean optical density as percentage of control, HCT-16
Procedure: as §1, §2, §3, §4

LoVo = assay: as above; assay type: cell-based; conditions: Homo sapiens, 10^−5 M, 72 hours of incubation, control condition = 100%, mean value, read-out: mean optical density as percentage of control, LoVo
Procedure: as §1, §2, §3, §4

MCF7 = assay: as above; assay type: cell-based; conditions: Homo sapiens, 10^−5 M, 72 hours of incubation, control condition = 100%, mean value, read-out: mean optical density as percentage of control, MCF7
Procedure: as §1, §2, §3, §4

PC-3 = assay: as above; assay type: cell-based; conditions: Homo sapiens, 10^−5 M, 72 hours of incubation, control condition = 100%, mean value, read-out: mean optical density as percentage of control, PC-3
Procedure: as §1, §2, §3, §4

T-47D = assay: as above; assay type: cell-based; conditions: Homo sapiens, T47D; 10^−5 M, 72 hours of incubation, control condition = 100%, mean value; read-out: mean optical density as percentage of control, T-47D
Procedure: as §1, §2, §3, §4

U-373MG = assay: as above; assay type: cell-based; conditions: Homo sapiens, U373 MG; 10^−5 M, 72 hours of incubation, control condition = 100%, mean value; read-out: mean optical density as percentage of control, U-373MG
Procedure: as §1, §2, §3, §4

U-87MG = assay: as above; assay type: cell-based; conditions: Homo sapiens, U-87 MG; 10^−5 M, 72 hours of incubation, control condition = 100%, mean value; read-out: mean optical density as percentage of control, U-87MG
Procedure: as §1, §2, §3, §4

SW1088 = assay: as above; assay type: cell-based; conditions: Homo sapiens, 10^−5 M, 72 hours of incubation, control condition = 100%, mean value, read-out: mean optical density as percentage of control, SW1088
Procedure: as §1, §2, §3
SW1088 (code ATCC: HTB-12) which is an astro-cytoma,
as §4

J82 = assay: as above; assay type: cell-based; conditions: Homo sapiens, 10^−5 M, 72 hours of incubation, control condition = 100%, mean value, read-out: mean optical density as percentage of control, J82
Procedure: as §1, §2, §3
(§5) J82 (code ATCC: HTB-1) and T24 (code ATCC: HTB-4) which are two bladder cancers,
as §4

T24 = assay: as above; assay type: cell-based; conditions: Homo sapiens, T-24; 10^−5 M, 72 hours of incubation, control condition = 100%, mean value; read-out: mean optical density as percentage of control, T24
Procedure: as §1, §2, §3, §5, §4

[1] = Determination of the maximum tolerated dose (MTD); conditions: B6D2F1/Jico, mouse, in vivo, ip; single intraperitoneal administration, doses 2.5 to 160 mg/kg, survival over 14 days
Procedure: The evaluation of the maximum tolerated dose was performed on 4- to 6-week-old B6D2F1/Jico mice. The compounds were administered intraperitoneally at increasing doses ranging from 2.5 to 160 mg/kg. The value of the MTD (expressed in mg/kg) is determined from the observation of the survival rate of the animals over a 14-day period after a single administration of the product under consideration. The change in weight of the animals is also monitored during this period. When the MTD value is greater than 160 mg/kg, the MTD value is considered as being 160 mg/kg by default.

SMILES | viability at 10 µM (A-427) [%] | viability at 10 µM (A549) [%] | viability at 10 µM (HCT-15) [%] | viability at 10 µM (LoVo) [%] | viability at 10 µM (MCF7) [%] | viability at 10 µM (PC-3) [%] | viability at 10 µM (T-47D) [%] | viability at 10 µM (U-373MG) [%] | viability at 10 µM (U-87MG) [%] | viability at 10 µM (SW1088) [%] | viability at 10 µM (J82) [%] | viability at 10 µM (T24) [%] | MTD at 14 day [1] [mg/kg]
COc1ccc(-c2c[nH]c3cc(OC)c(OC)cc3c2=O)cc1 [CRL8354, 6,7-Dimethoxy-3-(4-methoxyphenyl)-1,4-dihydro-4-quinolinone] | 97.2 | 98.5 | 95.9 | 98.4 | 102 | 93.7 | 104 | 97.7 | 102 | 93.2 | 98.2 | 91.4 | > 160
COc1cc2[nH]cc(-c3ccccc3)c(=O)c2cc1OC [CRL8355, 6,7-Dimethoxy-3-phenyl-1,4-dihydro-4-quinolinone] | 103 | 98.6 | 99.5 | 98.7 | 94.8 | 100 | 98.5 | 97.7 | 94.4 | 97.5 | 94.9 | 89.4 | > 160
COc1ccc(-c2cn(CCCN(C)C)c3cc(OC)cc(OC)c3c2=O)cc1 [CRL8357, N-[3-(Dimethylamino)propyl]-5,7-dimethoxy-3-(4-methoxyphenyl)-1,4-dihydro-4-quinolinone] | 59.5 | 73.3 | 79.5 | 97.9 | 95.8 | 85.6 | 94.1 | 96 | 84.4 | 69.6 | 84.7 | 99 | 80
COc1ccc(-c2c[nH]c3cc(OC)ccc3c2=O)cc1 [CRL8358, 7-Methoxy-3-(4-methoxyphenyl)-1,4-dihydro-4-quinolinone] | 34.5 | 55 | 89.1 | 38 | 84.1 | 89.1 | 92.1 | 41 | 80.1 | 98.3 | 92.7 | 90.7 | > 160
COc1ccc2c(=O)c(-c3ccccc3)c[nH]c2c1 [CRL8359, 7-Methoxy-3-phenyl-1,4-dihydro-4-quinolinone] | 25.8 | 73.9 | 59.9 | 30.9 | 65.8 | 123 | 41.2 | 41.2 | 114 | 140 | 52.2 | 34.7 | > 160
